Measurements published in paper PMC4123750 (Cell, 2014).

T1: NtDRM MTase (Nicotiana tabacum, UniProt Q76KU6)
T1 sequence (Q76KU6 255-608): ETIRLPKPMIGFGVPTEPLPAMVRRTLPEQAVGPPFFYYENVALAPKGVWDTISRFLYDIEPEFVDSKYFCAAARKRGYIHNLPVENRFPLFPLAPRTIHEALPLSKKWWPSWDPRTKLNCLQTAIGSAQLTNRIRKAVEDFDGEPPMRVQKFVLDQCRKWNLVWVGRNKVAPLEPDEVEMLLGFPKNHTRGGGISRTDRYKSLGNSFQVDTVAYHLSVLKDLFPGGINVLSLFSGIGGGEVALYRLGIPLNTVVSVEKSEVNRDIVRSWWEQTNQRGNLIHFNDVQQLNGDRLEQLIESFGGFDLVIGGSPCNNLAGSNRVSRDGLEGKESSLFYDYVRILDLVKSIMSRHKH

B1: Nicotiana tabacum DRM methyltransferase domain (NtDRM MTase, residues 255-608) (domain or fragment, UniProt Q76KU6 255-608, looked up)
chain: T1 sequence (Q76KU6 255-608)

Experiments:
NtDRM MTase = target: T1, NtDRM MTase; assay: X-ray crystal structure, […] A; assay type: binding; conditions: cofactor site; co-crystallised at protein:sinefungin molar ratio 1:3
crystal structure = target: the molecule itself; assay: crystal structure

| Molecule | X-ray crystal structure, 2.8 A (NtDRM MTase) | stoichiometry N (crystal structure) |
| --- | --- | --- |
| Nc1ncnc2c1ncn2[C@@H]1O[C@H](C[C@@H](N)CC[C@H](N)C(=O)O)[C@@H](O)[C@H]1O [sinefungin] | NtDRM MTase dimer with each molecule bound to a cofactor analog sinefungin in the active site |  |
| B1 |  | 2 |
